Patent US5672597A, “Acetamide derivative” (Kaken Pharmaceutical Co., Ltd., priority 1992, dated 1997)

Tests used:
[1] = tested on: ulcer induced by pylorus-ligation; experiment: Test of ulcer induced by pylorus-ligation; assay type: in vivo, wistar male rat; conditions: 14 h; rat, 100 mg/kg, in the duodenum immediately after ligating the pylorus; hydrochloride salts; read-out: Percentage of inhibition of ulcer formation
Protocol: (§1) With respect to anti-ulcer effect of the compounds having the general formula (I), there were carried out a test of ulcer induced by pylorus-ligation, which ulcer is induced mainly due to offensive factors; a test of ulcer induced by hydrochloric acid/ethanol, which ulcer is induced mainly due to defensive factors such as mucosal blood flow and mucus; and a test of ulcer induced by a stress of restraint plus water-immersion, which ulcer is induced due to both of offensive and defensive factors. Further, there were carried out a test of ulcer induced by acetic acid as a chronic ulcer model and a test of cure-prolonged ulcer induced by acetic acid. Also, there was examined an activity of increasing gastric mucosal blood flow, which activity brings about acceleration of regeneration of the gastric mucosa. As test compounds, hydrochloride salts were used.
The pylorus of a wistar male rat weighing 230 to 250 g, which had fasted for 48 hours, was ligated under ether-anesthesia, according to a usual method. After 14 hours, the animal was sacrificed by ether and the stomach was taken out therefrom.
The area of the ulcer generated on the fore-stomach was measured and the total area of the ulcer per rat was classified into the following six grades to give ulcer coefficients (Table 4).
Each of them was suspended in 0.5% methylcellulose solution and administered in the duodenum immediately after ligating the pylorus, in a dose of 100 mg/kg (body weight), respectively. To control group, only the medium for the medicament solution was administered in an amount of 0.25 ml/100 g (body weight).
The obtained results were subjected to the following formula to calculate a percentage of inhibition of ulcer formation. Six rats were used in each group for the test: [formula]

[2] = tested on: ulcer induced by hydrochloric acid/ethanol; experiment: Test of ulcer induced by hydrochloric acid/ethanol; assay type: in vivo, wistar male rat; conditions: 1 h; rat, 30 mg/kg oral, 30 minutes before hydrochloric acid/ethanol; hydrochloride salts; read-out: Percentage of inhibition of ulcer formation
Protocol: as §1
To a wistar male rat weighing 220 to 240 g, which had fasted and thirsted for 24 hours, was orally administered 150 mM hydrochloric acid/70% ethanol solution in an amount of 5 ml/kg (body weight). After 1 hour, the animal was sacrificed by dislocating the cervical vertebrae and the stomach was taken out therefrom. The length of the ulcer generated on the glandular stomach was measured and the total thereof was regarded as the ulcer coefficient (mm).
To control group, only the medium for the medicament solution was orally administered in an amount of […] (body weight), 30 minutes before the administration of hydrochloric acid/ethanol.
(§2) The obtained results were subjected to the same formula as in the test of ulcer induced by pylorus-ligation, to calculate a percentage of inhibition of ulcer formation. Six rats were used in each group for the test.

[3] = tested on: ulcer induced by a stress of restraint plus water-immersion; experiment: Test of ulcer induced by a stress of restraint plus water-immersion; assay type: in vivo, ddY male mouse; conditions: 7 h; mouse, 30 mg/kg oral, 15 minutes before the load of the stress; hydrochloride salts; read-out: Percentage of inhibition of ulcer formation
Protocol: as §1
A ddY male mouse weighing 20 to 25 g, which had fasted for 18 hours, was put into a stress cage, and was loaded with a stress by immersing it in a water tank at 23° C., to a level of a xiphoid. After 7 hours, the animal was sacrificed by dislocating the cervical vertebrae and the stomach was taken out therefrom. The length of the ulcer generated on the glandular stomach was measured and the total thereof was regarded as the ulcer coefficient (mm).
To control group, only the medium for the medicament solution was orally administered in an amount of 0.1 ml/10 g (body weight) 15 minutes before the load of the stress.
as §2

[4] = tested on: ulcer induced by acetic acid; experiment: Test of ulcer induced by acetic acid; assay type: in vivo, wistar male rat; conditions: rat, 15 mg/kg oral, twice a day from 2 days after generation of the ulcer
Protocol: as §1
Into the junction of the glandular stomach and the antrum, of a wistar male rat weighing 220 to 240 g, was injected subserosally […] of 20% acetic acid to generate an ulcer induced by acetic acid. […] Each of them was suspended in 0.5% methylcellulose solution, and administered orally in a dose of 15 mg/kg, twice a day (in the morning and in the evening) from 2 days after the generation of the ulcer for days, respectively. The animal was sacrificed by ether on the day after the last administration, and the stomach was taken out therefrom. The area of the ulcer was measured.
The obtained results were subjected to the following formula to calculate a percentage of improvement for curing ulcer. To control group, only the medium for the medicament solution was administered in an amount of 0.5 ml/100 g (body weight). Twenty rats were used in each group for the test. [formula]

[5] = tested on: cure-prolonged ulcer induced by acetic acid; experiment: Test of cure-prolonged ulcer induced by acetic acid; assay type: in vivo, wistar male rat; conditions: rat, 50 mg/kg oral, twice a day; cure prolonged with indomethacin 1 mg/kg s.c. for 13 days
Protocol: as §1
Into the junction of the glandular stomach and the antrum, of a wistar male rat weighing 220 to 240 g, was injected subserosally 30 μl of 20% acetic acid to generate an ulcer induced by acetic acid. From 2 days after the generation of the ulcer, indomethacin was injected subcutaneously in the regions of back of the rat in a dose of 1 mg/kg, once a day for 13 days to prolong the cure of the ulcer induced by acetic acid.
Each of them was suspended in 0.5% methylcellulose solution, and administered orally in a dose of 50 mg/kg, twice a day (in the morning and in the evening) from 13 days, respectively. The animal was sacrificed by ether on the day after the last administration, and the stomach was taken out therefrom. The area of the ulcer was measured. The obtained results were subjected to the following formula to calculate a percentage of improvement for curing ulcer. To control group, only the medium for the medicament solution was administered in an amount of 0.5 ml/100 g (body weight). Twenty rats were used in each group for the test. [formula]

[6] = tested on: gastric mucosal blood flow; experiment: Activity of increasing gastric mucosal blood flow; assay type: in vivo, wistar male rat; conditions: rat, urethane-anesthesia, 220 μg/kg intravenous, 60 minutes after administration
Protocol: as §1
An amount of the mucosal blood flow in the body of the stomach of a wistar male rat weighing 220 to 240 g under urethane-anesthesia was measured by means of a laser doppler blood flow meter. As test compounds, there were used the compound of the present invention and, as comparative compound, FRG-8813. Each of them was intravenously administered in a dose of 220 μg/kg. A percentage of increase of the blood flow was calculated 60 minutes after the administration. Five rats were used for each group for the test.

| Structure (SMILES) | inhibition in vivo at 100 mg/kg [1] [%] | inhibition in vivo at 30 mg/kg [2] [%] | inhibition in vivo at 30 mg/kg [3] [%] | Percentage of improvement for curing ulcer [4] [%] | Percentage of improvement for curing ulcer [5] [%] | Percentage of increase of blood flow [6] [%] |
| --- | --- | --- | --- | --- | --- | --- |
| CCOC(=O)NCC[S+]([O-])CC(=O)NC/C=C\COc1cccc(CN2CCCCC2)c1 (stereo not drawn) [Example 75, N-[4-[3-(piperidinomethyl)phenoxy]-cis-2-butenyl]-2-[2-(ethoxycarbonylamino)ethylsulfinyl]acetamide] | 96 | 82 | 87 | 24 | 49 | 15 |
| O=C(C[S+]([O-])Cc1ccco1)NC/C=C\COc1cc(CN2CCCCC2)ccn1 (stereo not drawn) [FRG-8813, reference compound] | 27 | 70 | 85 | 12 | -5 | 3 |
